Data on eight molecules can be found in ChEMBL document CHEMBL1140693, “4,5-diarylisoxazole Hsp90 chaperone inhibitors: potential therapeutic agents for the treatment of cancer” (J Med Chem, 2008).

The structures appear in SMILES notation.

Data set [1] can be described thus: Tmax in human HCT116 cells bearing NCr athymic mouse at 4 mg/kg, cassette dosing. The data set is classed as ADME, organism-based, HCT-116. Set-up: dose 4 mg/kg. Particulars: in vivo.
Data set [2] in a line: Cmax in human HCT116 cells bearing NCr athymic mouse at 4 mg/kg, cassette dosing. In kind it is ADME, organism-based, HCT-116. Further details: dose 4 mg/kg. The settings on record: in vivo.
The nature of data set [3]: AUClast in human HCT116 cells bearing NCr athymic mouse at 4 mg/kg, cassette dosing. Further details: time 0 - last, dose 4 mg/kg. The data set is classed as ADME, organism-based, HCT-116. Particulars: in vivo.
The nature of data set [4]: Terminal half life in human HCT116 cells bearing NCr athymic mouse at 4 mg/kg, cassette dosing. In kind it is ADME, organism-based, HCT-116. Further details: dose 4 mg/kg. Particulars: in vivo, read-out: t1/2 lambda z (converted).
The nature of data set [5]: Apparent clearance in human HCT116 cells bearing NCr athymic mouse at 4 mg/kg, cassette dosing. The data set is classed as ADME, organism-based, HCT-116. The settings on record: in vivo. Further details: dose 4 mg/kg.
For another data set, the target named is Heat shock protein HSP90 (Homo sapiens, UniProt P07900+P08238).
For data set [6], the system named is HCT-116. Kind of data set: cells. Particulars: Homo sapiens, HCT-116, 24 h.
Description: Growth inhibition of human HCT116 cells after 24 hrs by SRB assay
Data set [7] can be described thus: Apparent terminal-phase volume of distribution (Vz/F) in human HCT116 cells bearing NCr athymic mouse at 4 mg/kg, cassette dosing. The settings on record: in vivo.
The subject of the next data set is DU-145. Kind of data set: Growth inhibition of human DU145 cells by SRB assay. In kind it is functional.
Data set [8] in a line: Growth inhibition of human PC3M cells by SRB assay. In kind it is functional. The settings on record: PC-3M. Background: Sulforhodamine B stains cellular protein and so reports cell mass.
The test system of the next data set is SK-MEL-28. Kind of data set: Growth inhibition of human SKMel28 cells by SRB assay. In kind it is functional.
The subject of the next data set is SF-268. Kind of data set: Growth inhibition of human SF268 cells by SRB assay. The data set is classed as functional.
Data set [9] can be described thus: Growth inhibition of human U87MG cells by SRB assay. In kind it is functional, U-87MG ATCC. Particulars: U-87 MG.
Data set [10] concerns HCT-116. Kind of data set: Inhibition of tumor growth in human HCT116 cells bearing mouse assessed as tumor weight at 50 mg/kg, ip qd after 12 days relative to control. The settings on record: HCT-116, ip, 288 h.

Description for Heat shock protein HSP90: Displacement of fluorescent labelled VER-00051001 from human Hsp90-beta by FP assay

By Tmax is commonly meant the time from dosing to the highest level. The Cmax is the peak of the concentration-time curve. A word on the AUC(0-t): it is the area under the concentration-time curve up to a stated or last time point. High values mean more exposure, low ones less exposure. For orientation: CL/F means clearance divided by bioavailability, as obtained after extravascular dosing. By IC50 is commonly meant the midpoint of a concentration-inhibition curve. Higher therefore signals weaker potency in that assay. For orientation: GI50 means the concentration that inhibits growth by half. Read a high GI50 as less potent growth inhibition. With `CCNC(=O)c1noc(-c2cc(C(C)(C)C)c(O)cc2O)c1-c1ccc(CN2CCOCC2)cc1`, the Tmax in [1] worked out at 1 h. This molecule also displayed a Cmax in data set [2] of 203 nM. In data set [3], this molecule returned an AUC(0-t) of 0.751 µM·h. For the same molecule, the half-life in [4] was 5 h. Moreover, the CL/F in [5] is 1.85 mL/min. On Heat shock protein HSP90, the IC50 was found to be 8 nM. In addition, in the data set on HCT-116 [6], the GI50 is 70 nM. Further, the Vz/F in [7] is 0.809 L.
Take `CCNC(=O)c1n[nH]c(-c2cc(Cl)c(O)cc2O)c1-c1ccc(OC)cc1`: the GI50 in the data set with DU-145 turned out to be 1200 nM; in [8], 2200 nM; with SK-MEL-28 it was 480 nM; with SF-268, 320 nM; in data set [9] it was 1200 nM.
In the case of `CCNC(=O)c1noc(-c2cc(-c3ccccc3)c(O)cc2O)c1-c1ccc(CN(CC)CC)cc1`, in data set [1], the Tmax was found to be 4 h. In [2], this molecule had a Cmax of 252 nM. Moreover, in data set [3], the AUC(0-t) was found to be 1.25 µM·h. The half-life in [4] is 14.6 h. In addition, in data set [5], the CL/F was 0.583 mL/min. The half-maximal inhibitory concentration (IC50) on Heat shock protein HSP90 stood at 74 nM. Also, in the data set on HCT-116 [6], growth was halved (GI50) at 91 nM. In addition, the Vz/F in data set [7] came to 0.736 L.
With `CCNC(=O)c1noc(-c2cc(Cl)c(O)cc2O)c1-c1ccc(OC)cc1`, the Tmax in data set [1] came out at 1 h. The molecule further yielded a Cmax in data set [2] of 482 nM. Also, the AUC(0-t) in data set [3] worked out at 1.73 µM·h. Further, the half-life in data set [4] was 3.9 h. Also, in [5], the apparent clearance CL/F was 1.27 mL/min. The GI50 with DU-145 came to 230 nM; in data set [8], 220 nM; in the data set on SK-MEL-28, 45 nM; with SF-268 it was 34 nM; in [9], 28 nM; in the data set on HCT-116 [6], 120 nM. In addition, the Vz/F in [7] turned out to be 0.432 L.
With `CCNC(=O)c1noc(-c2cc(-c3ccccc3)c(O)cc2O)c1-c1ccc(CN2CCCCC2)cc1`, the Tmax in [1] was 1 h. The molecule also showed a Cmax in [2] of 237 nM. Moreover, the AUC(0-t) in data set [3] was found to be 0.995 µM·h. Besides, the half-life in data set [4] was 7.3 h. For the same molecule, in [5], the CL/F was 1.03 mL/min. The molecule also came in with an IC50 at Heat shock protein HSP90 of 14 nM. Besides, the GI50 in the data set on HCT-116 [6] is 86 nM. Besides, the Vz/F in data set [7] is 0.652 L.
The term T/C denotes the ratio of treated to control. Regarding `CCNC(=O)c1noc(-c2cc(C(C)C)c(O)cc2O)c1-c1ccc(CN2CCOCC2)cc1` [LUMINESPIB], in [1], the Tmax was found to be 1 h. The molecule also gave a Cmax in [2] of 385 nM. The molecule also yielded an area under the curve AUC(0-t) in data set [3] of 1.72 µM·h. Moreover, the half-life in [4] was 9.5 h. The apparent clearance CL/F in data set [5] is 0.583 mL/min. In addition, the concentration for 50% growth inhibition (GI50) was 5 nM with DU-145; 6 nM in data set [8]; 5 nM in the data set with SK-MEL-28; 6 nM in the data set on SF-268; 8 nM in [9]. In the data set with HCT-116 [10], the T/C at 50 mg/kg is 49.8%. The Vz/F in [7] turned out to be 0.478 L.
Consider `CCNC(=O)c1[nH]nc(-c2cc(Cl)c(O)cc2O)c1-c1cccc(CN2CCOCC2)c1`, for which the IC50 against Heat shock protein HSP90 turned out to be 222 nM. Moreover, the GI50 in the data set on HCT-116 [6] is 2690 nM.
`CCNC(=O)c1[nH]nc(-c2cc(Cl)c(O)cc2O)c1-c1ccc(CNCCS(C)(=O)=O)cc1` registered an IC50 on Heat shock protein HSP90 of 35 nM. This molecule gave a GI50 in the data set with HCT-116 [6] of 2160 nM.
